# Laboratory results: patent US20060122107A1 (Monash University, priority 2002, published 2006)
# “Also recorded” adds a separate entry of the source. Read-outs that look alike come from different tables or passages of the source.
# What was measured:
# [1] = 20% mouse serum (From adult male BL6 mice); settings: 37° C., up to 12 hrs
# [2] = Serum stability assay; assay type: in vitro ADME, mouse; settings: for remaining at 2 h, 0.091 mg/ml: male
# Description: 10 μL of an aqueous peptide solution containing 1 mg/ml peptide was added to 100 μl of 20% mouse serum (From adult male BL6 mice), and incubated at 37° C. for 0 min, 2 hrs and 12 hrs. At each time point samples were taken and serum proteins removed by precipitation through the addition of 40 μl of 15% TCA. Samples were stored at 4° C. for 30 min and centrifuged. Supernatants were then removed and kept on ice. 50 μl of each supernatant was analysed by RP-HPLC using 0.1% TFA in water (eluent A) and 0.09% TFA in 60% aqueous acetonitrile (eluent B) and the following gradient.
# The column was a Pharmacia μRPC octadecyl silica column of […] nominal particle size and 300 Å pore size. The flow rate was 200 μl/min and UV detection was used at 214 nm, 254 nm and 280 nm. Values are given as area of peptide peak (214 nm). Peptide amounts at T=0 min were used as 100%. Peptide digests were fractionated and Electrospray ionisation (ESI) Ion Trap Mass spectrometry was used to characterise the fragmentation pattern of SIINFEKL and selected β-amino acid analogues.
# Since β-amino acids are resistant to proteolysis, the influence of peptide modification on stability against proteolysis was tested by monitoring the degradation of the peptides in mouse blood serum. Degradation kinetics were followed by reverse phase-HPLC (RP-HPLC) analysis using corresponding peak area for peptide quantification. The parental SIINFEKL peptide was degraded rapidly, with only 5% of the peptide being recovered after 2 hrs. For the βC3-analogues, the amount of degradation was highly dependent on the position of the substitution. Limited stabilisation occurred for peptides with substitutions at P3 and P4 with 8% and 7% recovery respectively (FIG. 11). For the substitution at P1, 10% of the initial peak was recovered. […] For β-Phe at P5 and β-Leu at P8 over 25% of the initial peak was recovered after 2 hrs.
# [3] = construct that expresses an ER-targeted ESO157-167
# [4] = target: MHC Class I H2-K^b on cells (mouse); assay: flow cytometry on RMA-S cells, with against without exogenous peptide
# [5] = test system: CD8^+ T cell response; settings: mixture of peptides intradermally, patients bearing NY-ESO^+ tumors; cited from earlier work
# [6] = target: HLA-A2 (Homo sapiens, UniProt P04439, D140Y/D185E/D98H/E176V/E277Q/G131W/G231S/I119V/I121R/I166T/I218V/L300P/L318F/N151K/N90K/P208A/P217A/Q86G/Q94H/R138H/R169H/T345S); settings: cited from earlier work
# [7] = test system: CTL clone HSV2.3; assay: T-hybrid CTL recognition assay (IL-2 bioassay), control clone HSV2.3; assay type: cell-based, mouse
# Description: (§1) The SIINFEKL/K^b-restricted CD8^+ CTL clones B3.1, GA4.2 (Nikolic-Zugic, J., and Carbone F. R. (1990). The effect of mutations in the MHC Class I peptide binding groove on the cytotoxic T lymphocyte recognition of the Kb restricted ovalbumin determinant. Eur. J. Immunol. 20:2431), 149.13.13, 149.42.12 (Clark S. R., Barnden M., Kurts C., Carbone F. R., Miller J. F., Heath J. R. Characterization of the ovalbumin-specific TCR transgenic line OT-I: MHC elements for positive and negative selection. Immunol Cell Biol. April 2000;78(2): 110-7), and the herpes simplex viral specific clone HSV2.3 (Wallace, M. E., Keating, R., Heath, W R., Carbone, F. R. 1999. […]
# (§2) CTLL-2 cells were grown to ˜5×10^5 cell per ml then washed 3 times in media containing no exogenous IL-2. […] Once dry, scintillation fluid (Packard Biosciences, Melbourne) was added, then counted on a TopCount scintillation counter (Packard Biosciences, Melbourne).
# (§3) CTL clones (expressing different TCR Vβ/Vα segments) restricted by the H2-K^b molecule, and specific to the SIINFEKL peptide were tested for their ability to recognise the various βC3-amino acid substituted analogues (Table X). […] CTTL-2 proliferation is then measured by 3H-Thymydine incorporation and counted on a scintillation counter.
# [8] = test system: SIINFEKL/K^b-restricted CD8^+ CTL clones; assay: T-hybrid CTL recognition assay (IL-2 bioassay), panel of clones; assay type: cell-based, mouse; settings: 1 μM peptide pulsed on I-3 cells
# Description: as §1, §2, §3
# [9] = target: H2-K^b complex with Peptide 2 (βC3-Ser at P1) on cells (mouse); assay: RMA-S stabilisation assay with 25-D1.16, flow cytometry
# [10] = target: H2-K^b complex with Peptide 4 (βC3-Ile at P3) on cells (mouse); assay: as above
# [11] = BL6, 20% mouse serum, 37° C., RP-HPLC peak area 214 nm, read-out: peptide recovered after 2 hrs
compound,measurement,setting,value
Ser Ile β^c3Ile Asn Phe Glu Lys Leu,not cleaved,[1],At t=2 hrs most of the full peptide has disappeared
CC[C@H](C)[C@H](NC(=O)[C@@H](NC(=O)[C@@H](N)CO)[C@@H](C)CC)C(=O)NC(CC(N)=O)CC(=O)N[C@@H](Cc1ccccc1)C(=O)N[C@@H](CCC(=O)O)C(=O)N[C@@H](CCCCN)C(=O)N[C@@H](CC(C)C)C(=O)O (stereo partly drawn) [Peptide 5],"remaining at 2 h, 0.091 mg/ml","[2]; BL6, mouse, serum",7%
SLLMWITQCFL,fragment found,[3],ESO157-165; also recorded: ESO159-167
"CC[C@H](C)[C@H](NC(=O)[C@@H](NC(=O)[C@@H](N)CO)[C@@H](C)CC)C(=O)N[C@@H](CC(N)=O)C(=O)NC(CC(=O)N[C@@H](CCC(=O)O)C(=O)N[C@@H](CCCCN)C(=O)N[C@@H](CC(C)C)C(=O)O)Cc1ccccc1 (stereo partly drawn) [Peptide 6, SIINβFEKL]",full peptide at t=12 hrs,[2],disappeared
same,serum cleavage sites (MS of fragments),[2],cleavage did not occur after the P5 amino acid
same,"remaining at 2 h, 0.091 mg/ml","[2]; BL6, mouse, serum",> 25%
CCC(C)C(CC(=O)N[C@H](C(=O)N[C@@H](CC(N)=O)C(=O)N[C@@H](Cc1ccccc1)C(=O)N[C@@H](CCC(=O)O)C(=O)N[C@@H](CCCCN)C(=O)N[C@@H](CC(C)C)C(=O)O)[C@@H](C)CC)NC(=O)[C@@H](N)CO (stereo partly drawn) [Peptide 3],resistance to proteolytic degradation,[2],significant resistance
H2-K^b specific monoclonal antibody Y-3,fold increase in surface K^b staining with exogenous peptide,[4],50 fold
"CC[C@H](C)[C@H](NC(=O)[C@@H](NC(=O)[C@@H](N)CO)[C@@H](C)CC)C(=O)N[C@@H](CC(N)=O)C(=O)N[C@@H](Cc1ccccc1)C(=O)N[C@@H](CCC(=O)O)C(=O)N[C@@H](CCCCN)C(=O)NC(CC(=O)O)CC(C)C (stereo partly drawn) [Peptide 8, SIINFEKβL]","remaining at 2 h, 0.091 mg/ml",[2]; [11],> 25%
same,resistance to proteolytic degradation,"[2]; mouse serum, 2 hrs, listed as P8",significant resistance; also recorded: most stable
Ser Ile Ile Asn β^c3Phe Glu Lys Leu,not cleaved,[1],At t=12 hrs the full peptide has disappeared leaving only fragments
"SLLMWITQCFL [ESO157-167, NY-ESO 157-167 HLA-A*0201-restricted determinant]",CD8^+ T cell response after peptide vaccination,[5],vigorous
"CC[C@H](C)[C@H](NC(=O)[C@@H](NC(=O)[C@@H](N)CO)[C@@H](C)CC)C(=O)N[C@@H](CC(N)=O)C(=O)N[C@@H](Cc1ccccc1)C(=O)N[C@@H](CCC(=O)O)C(=O)N[C@@H](CCCCN)C(=O)N[C@@H](CC(C)C)C(=O)O [Peptide 1, SIINFEKL, reference compound]","remaining at 2 h, 0.091 mg/ml",[2]; [11],5%
same,serum cleavage sites (MS of fragments),[2]; mouse serum,S*I*I*NF*E*KL
CC[C@H](C)[C@H](NC(=O)CC(N)CO)C(=O)N[C@H](C(=O)N[C@@H](CC(N)=O)C(=O)N[C@@H](Cc1ccccc1)C(=O)N[C@@H](CCC(=O)O)C(=O)N[C@@H](CCCCN)C(=O)N[C@@H](CC(C)C)C(=O)O)[C@@H](C)CC (stereo partly drawn) [Peptide 2],"remaining at 2 h, 0.091 mg/ml",[2]; [11],10%
SLLMWITQC [ESO157-165],binding to HLA-A2,[6],poor binding
same,CD8^+ T cell response after peptide vaccination,[5],later and at a lower level
SSIEFARL [peptide recognised by the Herpes Simplex Virus specific control clone HSV2.3],recognition by control clone HSV2.3,[7],mainly mediated
same,CTL recognition by the clones,[8],not recognised
CCC(C)C(CC(=O)N[C@@H](CC(N)=O)C(=O)N[C@@H](Cc1ccccc1)C(=O)N[C@@H](CCC(=O)O)C(=O)N[C@@H](CCCCN)C(=O)N[C@@H](CC(C)C)C(=O)O)NC(=O)[C@@H](NC(=O)[C@@H](N)CO)[C@@H](C)CC (stereo partly drawn) [Peptide 4],serum cleavage sites (MS of fragments),[2],no cleavage at the P2-P3 bond
same,"remaining at 2 h, 0.091 mg/ml","[2]; BL6, mouse, serum",8%
monoclonal antibody 25-D1.16,fold increase in peptide concentration to reach the same level of recognition as SIINFEKL,[9],100 fold
same,fold increase in peptide concentration to reach the same level of recognition as SIINFEKL,[10],100 fold
SIINFEKL,cleaved bond,[1],"S-I, 2 hrs; also recorded: I-N, 2 hrs; also recorded: F-E, 2 hrs; also recorded: E-K, 2 hrs"
